These results are taken from US20210212957A1, “MEDICAL DEVICE FOR PREVENTING AND/OR TREATING INFECTIONS OF SKIN LESIONS” (FASTMEDITALIA S.R.L., priority 2020, published 2021).

This assay has as its system Staphylococcus aureus (gram-positive bacterium; ATCC 6538). As to the kind of experiment: bacterial reduction in a bacterial suspension in dynamic contact with the medical device. In kind it is cell-based. Conditions: temperature environment; dynamic contact time 1 hour; 50 grams of bacterial suspension at 10^5 cells, 1 gram of medical device where present. Here is the method:
In Table 1, 50 grams of bacterial suspension at a concentration of 10^5 cells was subjected to dynamic contact with 1 gram of the medical device in the presence of cocamido-propyl-betaine (an amphoteric surfactant).
The same experiment was then carried out using no surfactant at all (Table 2) or non-ionic or anionic surfactants (Tables 3 and 4).
Turning to Polyoxyethylenesorbitan monolaurate, the Bacterial reduction % was 5%.
Consider “cocamidopropyl betaine [2 g/l of cocamidopropyl betaine]”, for which the Bacterial reduction % worked out at 12%.
The molecule `CCCCCCCCCCCCOS(=O)(=O)[O-].[Na+]` [Sodium dodecilsulphate] gave a Bacterial reduction % of 16%.
